Test results taken from the METLIN SMRT retention time set (Domingo-Almenara et al. 2019).

Assay: gradient 5% acetonitrile 3 min, to 50% in 2 min, to 85% in 15 min, held 3 min, 100 µL/min
Details: column: Zorbax Extend-C18 2.1 x 50 mm; eluents: water / acetonitrile, 0.1% formic acid
Method in brief: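 The system's dead and dwell volumes were 40 μL and 900 μL, with a Zorbax Extend-C18 column (2.1 × 50 mm, 1.8 μm) run at 100 μL/min in water and acetonitrile containing 0.1% formic acid each. Pure standards were analyzed in mixtures of ~100 molecules by HPLC–quadrupole time-of-flight mass spectrometry in positive and negative ionization mode. Retention time was assigned from computationally picked, manually inspected adduct peaks.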

Compound | RP-LC retention time [s]
Cc1csc(-c2cc(S(=O)(=O)NC3CCCC3)cn2CC(=O)N2CCCC2)n1 | 848
Cc1oc(C(C)C)nc1C(=O)NCc1cccs1 | 897
NC(=O)C1CCN(S(=O)(=O)c2cc(-c3noc(C4CCC4)n3)cs2)CC1 | 777
O=C(Cn1ccc2sccc2c1=O)Nc1ccc(Cl)cc1 | 776
COc1ccc(CNC(=O)N2C[C@H](c3nc(-c4ccncc4)no3)[C@@H](C)C2)cc1 | 732
COc1cccc(-c2csc(Cc3nc(-c4cccc(Cl)c4)no3)n2)c1 | 1280
Cc1nn(-c2ccc(Cl)cc2)c(C)c1S(=O)(=O)N1CCN(c2ccccn2)CC1 | 747
O=S(=O)(c1ccc(Cl)cc1)N1CCN(c2ccnc3cc(Cl)ccc23)CC1 | 758
CCCN1CCN(C(=O)C2CCCN(c3nc4cccnc4s3)C2)CC1 (stereo not given) | 593
Cc1ccc(C)c(-c2cc3c(=O)n(Cc4noc(-c5ccc6c(c5)OCO6)n4)ccn3n2)c1 | 1120
O=C(c1ccc[nH]1)N1CCC2(CC1)NC(=O)N(Cc1cccc(Cl)c1)C2=O | 769
CN1CCN(CCCNC(=O)c2cc3occc3c(Nc3ccc(F)cc3)n2)CC1 | 616
Cc1c(Cl)cccc1NC(=O)/C=C/c1ccccc1 | 947
O=C(Nc1cnn(-c2ncncc2N2CCCCC2)c1)C1CC1 | 604
Cc1oc(-c2ccccc2)nc1CN(c1ccccc1)S(=O)(=O)c1cccs1 | 1150
COCCN1C(=O)c2ccccc2C(C(=O)NCc2ccccc2F)C12CCCCC2 (stereo not given) | 877
N#CCCN1CCN(c2ccc(NC(=O)C3CCC3)c(C(=O)O)c2)CC1 | 586
N[C@@H](CC(=O)N1CCn2c(nnc2C(F)(F)F)C1)Cc1cc(F)c(F)cc1F | 675
COc1ccc(NC(=O)Cn2nc(N3CCC(C)CC3)c3ccccc3c2=O)c(OC)c1 | 1130
COc1ccccc1CCC(=O)N1CCc2cc(-c3csc(C)n3)ccc21 | 1090
Cc1ccc(S(=O)(=O)N2CCC3(CC2)CC(C)(O)CCO3)cc1Cl (stereo not given) | 888
COc1ccccc1NC(=O)Cn1cc(C(=O)N2CCCC2)c(=O)c2ccc(C)nc21 | 705

Compound | RP-LC retention time [s]
Cc1cc(C(=O)N2CCOCC2)nn1CC(=O)NCc1ccc2c(c1)OCO2 | 634
COc1ccc(OCc2noc(CNC(=O)Nc3cc(OC)c(OC)c(OC)c3)n2)cc1 | 743
CCOC(=O)CNC(=O)N1CCc2c(c(C(=O)N3CCCC3)nn2C)C1 | 637
CCn1c(C(=O)NCCC(C)C)cc2c(=O)oc3ccccc3c21 | 751
CCN(C(=O)c1ccccc1OC)c1nc(-c2ccccc2)cs1 | 1210
C=CCNC(=O)CN1C(=O)C2CCCCN2c2ccc(S(=O)(=O)N(C)C)cc21 (stereo not given) | 774
CCOc1ccccc1NS(=O)(=O)c1ccc(-c2c(C)noc2C)cc1 | 978
COCc1cc(=O)n(Cc2cccc(OC)c2)c(N2CCCC2)n1 | 764
CC1=C(c2cccc(Cl)c2)S(=O)(=O)N=C1N1CCC(NC(=O)NCC(C)C)CC1 | 651
COc1ccccc1NC(=O)N1CCc2[nH]cnc2C1c1ccncc1 (stereo not given) | 540
Cn1cc2c(n1)c(=O)n(Cc1ccc(F)cc1)c(=O)n2CC(=O)Nc1cc(F)ccc1F | 841
Cc1nc(NS(=O)(=O)CCOc2ccc(F)cc2)sc1C | 710
Cc1cccc(-c2nc(NCCCN3CCOCC3)c3ccccc3n2)c1 | 819
O=C(c1ccc(-c2ccc([N+](=O)[O-])cc2Cl)o1)N1CCOCC1 | 778
Cc1nnc(NC(=O)c2ccc(S(=O)(=O)NCc3ccccn3)o2)s1 | 581
O=c1ccc(-c2ccccc2)nn1Cc1nc(-c2ccc3c(c2)OCO3)no1 | 959
Cc1ccc(NC(=O)Cn2nc(N3CCCCCC3)c3ccccc3c2=O)c(F)c1 | 1190
Cc1ccc(C)c(S(=O)(=O)Nc2ccc(Cn3cncn3)cc2)c1 | 725
COc1cc(OC)c(NC(=O)NC2CCN(c3ccc(F)cc3)C2=O)cc1Cl (stereo not given) | 854
Cc1ccn2cc(C(=O)NCc3ccccc3C)nc2c1 | 708
CCOc1ccccc1NC(=O)CSc1nnc2c3cc(-c4ccc(C)c(C)c4)nn3ccn12 | 1090
CSc1cccc(NC(=O)Cn2c(=O)cc(-c3nc(C4CC4)no3)c3ccccc32)c1 | 686

The next lines start with the values.

RP-LC retention time [s] | Compound
562 | Cc1nn(C)cc1C(=O)NC1CCN(c2ccc(=O)n(C)n2)C1 (stereo not given)
644 | CN1CCN(c2cc(C(=O)O)c3cc(NS(=O)(=O)c4ccc(Cl)c(Cl)c4)ccc3n2)CC1
1200 | COc1ccc(NC(=O)c2csc(-c3ccc(C)n3C)n2)c(OC)c1
763 | O=C(NCc1ccco1)c1ccc(NC(=O)C2CCC2)cc1N1CCCCC1
608 | O=C(Nc1c(F)cccc1F)N1CCc2[nH]cnc2C1c1ccccc1 (stereo not given)
859 | CCCN(CC(=O)N1CCc2sccc2C1COc1ccc(F)cc1)C(=O)NCC (stereo not given)
690 | CCc1ccc(S(=O)(=O)N2CCN(CCc3cn(CC)c4ncccc34)CC2)cc1
895 | O=S(=O)(c1ccc2nncn2c1)N(Cc1cc(F)cc(F)c1)c1cccc(F)c1
566 | CN(C)S(=O)(=O)c1ccc(C(=O)Oc2coc(CSc3nccn3C)cc2=O)cc1
1030 | CNC(=O)c1c(NC(=O)c2ccc(N(C)C)cc2)sc2c1CCC2
595 | COc1ccc(CC(=O)N2CCC(Nc3ncnc4c3CCC4)C2)cc1 (stereo not given)
904 | CCCNC(=O)Cc1csc(-n2nc(C)c(Cl)c2C)n1
794 | O=C(NCCc1csc(-c2ccccc2)n1)C1CCN(C(=O)Cc2cccs2)CC1
747 | CCCC(=O)NC1(c2nc(-c3ccncc3)no2)CCCCC1
756 | CCN1CCCn2cc(S(=O)(=O)Nc3cc(C)ccc3C)cc2C1=O
1020 | Cn1nccc1-c1cccc(-c2noc(-c3ccsc3)n2)c1
705 | CCc1nnc(-c2ccc3ccn(CC(=O)Nc4cc(C)ccn4)c3c2)o1
755 | O=C(Cn1cc(-c2nnco2)c2ccccc21)NCc1ccccc1F
1030 | Cc1ccccc1-c1noc(Cn2c(=O)n(-c3cccc(F)c3)c(=O)c3sccc32)n1
1110 | COC(=O)c1ccc2c(=O)n(-c3ccc4c(c3)OCO4)c(N3CCN(c4ccccc4)CC3)nc2c1
1140 | COc1ccc(-c2nc(C3CC(=O)N(c4ccc(Cl)cc4)C3)no2)c(C)c1 (stereo not given)
600 | CN1CCN(CCNC(=O)c2cc(-c3ccccc3)cn2C)CC1
784 | c1ccc(CN2CCC3(CCc4ccccc43)CC2)cc1

RP-LC retention time [s] | Compound
1190 | Cc1cccc(Sc2nccnc2N2CCCC(C(=O)NCCCc3ccccc3)C2)c1 (stereo not given)
1010 | Cc1cc(C)cc(NS(=O)(=O)c2cc(-c3nc(C)cs3)cs2)c1
688 | Clc1ccc(-c2ccc(CNCC3CCCO3)o2)cc1 (stereo not given)
905 | CCn1c(=O)sc2cc(S(=O)(=O)N3CCC(C(=O)NCc4ccccc4Cl)CC3)ccc21
772 | COC(=O)[C@H](Cc1ccc(C#Cc2ccccc2)cc1)NC(=O)C[C@H]1CCCN(C(=N)N)C1
952 | O=C(Nc1cnc(N2CCCCCC2)nc1)c1ccc(Br)o1
937 | O=C(Nc1ccccc1F)N1CCCC1c1nc(-c2ccc(F)cc2F)no1 (stereo not given)
846 | O=C(Cn1cc(S(=O)(=O)N2CCCCC2)ccc1=O)N1CCCc2ccccc21
748 | CCCCCC(CN1CCOCC1)C(=O)/C=C/c1ccccc1 (stereo not given)
881 | CCC(=O)N1c2ccc(S(=O)(=O)CCC(=O)N3CCCc4ccccc43)cc2CC1C (stereo not given)
595 | COc1cccc(-c2nc(-c3ccc4c(c3)nnn4CCN(C)C)no2)c1
534 | Cc1ccc(CNC(=O)Nc2cnc3c(c2)CCC3)cc1
1060 | CCOC(=O)c1ccc(NC(=O)C2CCCN(S(=O)(=O)c3ccc(OC)c(Cl)c3)C2)cc1 (stereo not given)
586 | Cc1ccc(-c2nc3cnccn3c2NCCC(=O)NC(C)c2ccccn2)cc1 (stereo not given)
575 | Cc1c(CC(=O)NCc2cccnc2)c(=O)n2nc(-c3ccccc3)nc2n1C
891 | COc1cc(C=CC(=O)CC(=O)C=Cc2ccc(O)c(OC)c2)ccc1O
340 | c1nc(N2CCOCC2)c2cn[nH]c2n1
579 | CCCCC(=O)Nc1ccc2nc(N3CCN(CC)CC3)cc(C)c2c1
909 | COC(=O)C1=CN(c2cc(Cl)ccc2OC)c2cc(F)ccc2S1(=O)=O
878 | CCn1cnc(S(=O)(=O)N2CCCC(C(=O)Nc3ccc(C(C)C)cc3)C2)c1 (stereo not given)
684 | O=C(NCc1ccccc1Cl)C1CCN(c2cnc(N3CCCC3)nc2)CC1
654 | Cc1ccc(N2N=C(C(=O)NCCN3CCOCC3)S(=O)(=O)c3cc(F)ccc32)cc1
586 | Cc1ccnc(OCC(=O)NC(C)C)n1
